The source of these data is US5071839A, “Safe pharmaceutical composition for decreasing side effects of antiviral drugs and increasing the immune function (SDI) II” (priority 1987, dated 1991).

For data set [1] the following is noted: cited from earlier work.
A further data set relates to peritoneal macrophage. Nature of the data set: Phagocytosis of peritoneal macrophage of mice, 51Cr chick red blood cells (Example 10, Table 6). It counts as cell-based. The note with it: C: control, only antiviral drug (80 μg/ml). On the procedure: (§1) Male mice weight 18-20 g were used in the experimetns. The dosage of SDI is 5-10 mg/kg injected intraperitoneally. The normal mice were injected with same volume of normal saline. These injections were repeated daily for 3-5 days. On the last say, both antiviral drug and antiviral drug+SDI group were injected interaperitoneally.
Count the number of macrophages in the peritoneal exudate of mice and adjust to 1×10^7 cell/ml with normal saline. Add 0.1 ml of the macrophage suspension. i.e. 1×10^6 cells to each well on the plastic plate for test. Lable the chick red blood cell with ^51 Cr. Suspend the labelled chick red blood cell and adjust to 1.5×10^8/ml, add 0.1 ml, i.e. 1.5×10^7, to each well. Incubate at 37° C. for 30 minutes. Wash thoughly to remove the free chick red blood cells. Count each well in a γ-counter.

For a further data set, the system named is lymphocytes. Nature of the data set: Lymphoblastoid transformation test, 3H-TdR (Example 7, Table 3). The data set is classed as cell-based, mice. The conditions noted are these: C: control, only antiviral drug (80 μg/ml). On the procedure: as §1
1. Reagents and conditions for cell culture
a. Culture media--RPMI 1640, madium 199 minimal essential medium (Eagle).
b. 37° C. to maintain the pH of the medium at 7.31.
c. Serum--generally 15-20% fetal bovine serum was incorporated.
d. Gaseous phase 5% CO2 in air;
e. Cell concentration--generally 1-2×10^6 /ml;
f. Stimulants--20 μg/ml for phytoagglutinin containing polysaccharide (PHA-M) or 10 μg/ml for polysaccharide-free purified phytoagglutinin (PHA-P).
2. Measured by liquid scintillation
a. The conditions of cell culture are same as above. ^3 H-TdR was added after 48 hours of incubation at a final concentration of 2 μCi/ml and continue the incubation for 24 hours.
b. Wash the cells twice with cold normal saline and the erythrocytes were lysed by addition of distilled-water and equal volume of 3.6% NaCi was then added. The intact lymphocytes and add 2 ml of 10% trichloroacetic acid to precipitate the protein. Wash twice with normal saline. Add 2 ml of ethanol: ether (1:1) to wash once. 0.2 ml of formic acid was then added for digestion till the precipitate was dissolved.
c. Add 4 ml of scintillation fluid to 0.1 ml of the final sample and count in a liquid scintillation counter.

The next data set deals with white blood cells. Nature of the data set: White blood cells assay (Example 8, Table 4). The data set is classed as in vivo, mice. The conditions noted are these: C: control, only antiviral drug (80 μg/ml); 7 days. On the procedure: as §1
Action of SDI II and antiviral drug on white blood cells was investigated by means of white blood cells assay. […] Time of treatment is 7 days.

Another data set concerns YAC-1 or EAC cells. Nature of the data set: Natural killer cell cytotoxicity, 51Cr release from YAC-1 or EAC cells (Example 5, Table 1). The data set is classed as cell-based, mice. The note with it: C: control, only antiviral drug (80 μg/ml); E:T 100:1. The protocol: as §1
Natural Killer (NK) Cells can destrou many viruse. NK cells may be important in limiting early spread of virus, also Natural Killer Cytotoxicity is effective antiviral agent. NK cell cytoxicity was tested by chromium release which assay using ^51 Cr-labelled YAC-1 or EAC cell line as targer cells. […] The effector cell to target cell (E:T) radio is 100:1. After the incubation the tuber were spun, the amount of ^51 Cr-released in 0.1 ml supernatant was counted by r-scintillation counter. Percent cytotoxicity was calculated from the following formula: [formula]

In data set [2] the test system is bone marrow stem cells (CFU-S). Put plainly: Spleen colony assay, bone marrow stem cells (CFU-S) (Example 6, Table 2). The data set is classed as in vivo, mice. The note with it: C: control, only antiviral drug (80 μg/ml). The protocol: as §1
Effects of SDI on hemopoietic system were investigated.

The test system of another data set is T lymphocytes. Put plainly: Formation of rosette (T lymphocytes with sheep erythrocytes) (Example 9, Table 5). The data set is classed as cell-based, mice. The conditions noted are these: C: control, only antiviral drug (80 μg/ml). On the procedure:
as §1
a. Obtain venous blood in heparin (10 IU ml^-1) and perform a total and differential leucocyte count.
b. Isolate lymphocyte fraction. Count vaiable lymphocytes calculate and record total yield. Adjust to 5×10^5 lymphocytes ml^-1.
c. Wash sheep erythrocytes by centrifugation (400 g for 10 minutes at room temperature) and ajust to a 2.5% v/v suspension in PBS.
d. Mix 0.1 ml of the lymphocyte suspension with 0.1 ml of sheep erythrocytes and centrifuge at 225 g for 5 minutes at room temperature.
e. Incubate for 2 hours at 4° C.
f. Add 50 μl of fetal bovine serum (FBS).
g. Resuspend cell mixture by gently tapping the tube and pipette a sample into a haemocytomer.
h. Count 200 lymphocytes and determine the percentage of cell with 3 or more erythrocytes attached. (Three are T lymphocytes).
i. Calculate the absolute number of T lymphocytes ml^-1 of original blood.

The next data set has as its system DNA synthesis. The note with it: cited from earlier work.

Structures are written as SMILES. Like-named read-outs stand apart in the source and are kept apart here.

For `Nc1nc2c(ncn2COCCO)c(=O)[nH]1` [ACV, Acyclovir], the “side effects (marrow, blood)” value in data set [1] (various degree) was “bone-marrow suppression, megaloblastic anemia and recreasing total white blood cells”.
For `Nc1ncn([C@@H]2O[C@H](CO)[C@@H](O)[C@H]2O)c(=O)n1` [AZC], the “CPM (phagocytosis of peritoneal macrophage)” value in the data set on peritoneal macrophage came to 401 CPM. Further, in the data set on lymphocytes, the “CPM (lymphoblastoid transformation)” value worked out at 441 CPM. The molecule further displayed a White blood cells in the data set with white blood cells of 3800 mL⁻¹. Further, the “% Cytotoxicity (NK cells)” value with YAC-1 or EAC cells came out at 11.2%. The “Mean CFU ± SD” value in data set [2] is reported as 3.1. The Rate of formed rosette in the data set with T lymphocytes came out at 19.8%.
As to `Nc1ncn([C@H]2C[C@H](O)[C@@H](CO)O2)c(=O)n1` [AZCdR, 5'-Aza-2'-deoxycytidine], in data set [1] (various degree), the “side effects (marrow, blood)” value was “bone-marrow suppression, megaloblastic anemia and recreasing total white blood cells”.
On to `Cc1cn([C@H]2C[C@H](N=[N+]=[N-])[C@@H](CO)O2)c(=O)[nH]c1=O` [AZT, 3'-Azido-3'-deoxythymidine], for which the “side effects (marrow, blood)” value in data set [1] (various degree) was “bone-marrow suppression and megaloblastic anemia, and decreasing total white blood cells”. The DNA synthesis entry in the data set with DNA synthesis is “blocker of DNA synthesis”.
In the case of `O=c1cnn([C@@H]2O[C@H](CO)[C@@H](O)[C@H]2O)c(=O)[nH]1` [AZU, 6-Azauridune], the “side effects (marrow, blood)” value in data set [1] (various degree) is “bone-marrow suppression, megaloblastic anemia and recreasing total white blood cells”.
On to `Nc1ccn([C@@H]2O[C@H](CO)[C@@H](O)[C@@H]2O)c(=O)n1` [Ara-C, Cytarabine], for which the “CPM (phagocytosis of peritoneal macrophage)” value with peritoneal macrophage was 512 CPM. For the same molecule, the “CPM (lymphoblastoid transformation)” value with lymphocytes is reported as 654 CPM. For the same molecule, the “side effects (marrow, blood)” value in data set [1] (various degree) is “bone-marrow suppression, megaloblastic anemia and recreasing total white blood cells”. In the data set on white blood cells, this molecule had a White blood cells of 4200 mL⁻¹. In addition, the “Mean CFU ± SD” value in data set [2] stood at 3.8. This molecule also had a Rate of formed rosette in the data set on T lymphocytes of 23.7%.
Turning to `N=c1ccn2c(n1)O[C@H]1[C@H](O)[C@@H](CO)O[C@H]12` [C.C., Cyclocytidine], the “side effects (marrow, blood)” value in data set [1] (various degree) is “bone-marrow suppression, megaloblastic anemia and recreasing total white blood cells”.
`O=P1(N(CCCl)CCCl)NCCCO1` (centres unmarked) [CP, Cyclophosphamide]: the “CPM (phagocytosis of peritoneal macrophage)” value in the data set on peritoneal macrophage is reported as 481 CPM. For the same molecule, the “CPM (lymphoblastoid transformation)” value in the data set on lymphocytes is on record as 620 CPM. In addition, the “side effects (marrow, blood)” value in data set [1] (various degree) was “bone-marrow suppression, megaloblastic anemia and recreasing total white blood cells”. The molecule further registered a White blood cells in the data set with white blood cells of 5300 mL⁻¹. Besides, the “% Cytotoxicity (NK cells)” value in the data set on YAC-1 or EAC cells is recorded as 20.7%. The “Mean CFU ± SD” value in data set [2] came out at 4.0. Besides, the Rate of formed rosette in the data set on T lymphocytes was 20.7%.
`Nc1ncnc2c1ncn2[C@H]1CC[C@@H](CO)O1` [DDA, 2',3'-Dideoxyadenoside]: in the data set with peritoneal macrophage, the “CPM (phagocytosis of peritoneal macrophage)” value is 489 CPM. Further, the “CPM (lymphoblastoid transformation)” value with lymphocytes is recorded as 502 CPM. Besides, the “side effects (marrow, blood)” value in data set [1] (various degree) was “bone-marrow suppression, megaloblastic anemia and recreasing total white blood cells”. Moreover, the White blood cells in the data set on white blood cells turned out to be 4200 mL⁻¹. In the data set with YAC-1 or EAC cells, the “% Cytotoxicity (NK cells)” value was found to be 18.0%. The “Mean CFU ± SD” value in data set [2] is on record as 4.2. Further, in the data set with T lymphocytes, the Rate of formed rosette worked out at 22.4%.
Regarding `Nc1ccn([C@H]2CC[C@@H](CO)O2)c(=O)n1` [DDC, 2',3'-Dideoxycytidine], in data set [1] (in vivo), the “side effects (marrow, blood)” value is “bone-marrow suppression, megaloblastic anemia and recreasing total white blood cells”.
`O=c1[nH]c(=O)n([C@H]2C[C@H](O)[C@@H](CO)O2)cc1I` [IDU, Idoxuridine]: the “side effects (marrow, blood)” value in data set [1] (in vivo) is “bone-marrow suppression, megaloblastic anemia and recreasing total white blood cells”.
On to `NC(=O)c1ncn([C@@H]2O[C@H](CO)[C@@H](O)[C@H]2O)n1` [Rib, Ribofuranosyl-Trazole-Carboxamide], for which the “CPM (phagocytosis of peritoneal macrophage)” value with peritoneal macrophage is given as 540 CPM. Further, the “CPM (lymphoblastoid transformation)” value in the data set on lymphocytes is 763 CPM. Besides, the “side effects (marrow, blood)” value in data set [1] (various degree) was “bone-marrow suppression, megaloblastic anemia and recreasing total white blood cells”. Further, in the data set with white blood cells, the White blood cells stood at 4900 mL⁻¹. In the data set on YAC-1 or EAC cells, the “% Cytotoxicity (NK cells)” value is reported as 22.3%. The “Mean CFU ± SD” value in data set [2] came to 4.2. This molecule displayed a Rate of formed rosette with T lymphocytes of 28.7%.
